In ChEMBL document CHEMBL6074652, “New rhodol-sulforaphane conjugates as innovative isothiocyanate-based cytotoxic agents for cancer cells” (Eur J Med Chem, 2024):
Calls of active or inactive are those of the source.

Experiments:
[1] = system: Jurkat; experiment: Cytotoxicity against human Jurkat cells assessed as cell survival rate at 30 uM incubated for 72 hrs by trypan blue staining based MTT assay; settings: read-out: Survival
[2] = system: Jurkat; experiment: Cytotoxicity against human Jurkat cells assessed as inhibition of cell viability incubated for 72 hrs by trypan blue staining based MTT assay; format: functional
[3] = system: Jurkat; experiment: Induction of DNA damage in human Jurkat cells assessed as single strand breaks at 8 uM by measuring nuclear diffusion factor measured after 3 hrs by fast halo based fluorescence microscopic analysis relative to control; format: functional
[4] = system: Jurkat; experiment: Induction of DNA damage in human Jurkat cells at 6 uM assessed as nuclear diffusion factor incubated for 1 hr in presence of iron-chelator o-phenanthroline by fast halo based fluorescence microscopic analysis; format: functional, cell-based
[5] = system: Mitochondrial membrane; experiment: Induction of mitochondrial membrane potential loss in human Jurkat cells at 2 to 6 uM by flow cytometric analysis; settings: dose 2-6 µM
[6] = system: Jurkat; experiment: Induction of DNA damage in human Jurkat cells assessed as increase in accumulation of single strand breaks by measuring nuclear diffusion factor by fast halo based fluorescence microscopic analysis; format: functional, cell-based; settings: dose 0-8 µM
[7] = system: Jurkat; experiment: Cytotoxicity against human Jurkat cells assessed as cell growth inhibition under 4 degreeC incubated for 72 hrs by trypan blue staining based MTT assay; format: functional
[8] = system: Jurkat; experiment: Induction of apoptosis in human Jurkat cells assessed as increase in caspase-8 activity incubated for 2 hrs by colorimetric protease assay; format: functional, cell-based; settings: dose 2-6 µM
[9] = system: Jurkat; experiment: Induction of apoptosis in human Jurkat cells assessed as appearance of chromatin condensation pretreated with compound for 1 hr and measured after 5 hrs by uranyl acetate and lead citrate staining based transmission electron microscopic analysis; format: functional, cell-based; settings: time 6.0 hrs
[10] = system: Jurkat; experiment: Cytotoxicity against human Jurkat cells at 6 uM in presence of iron-chelator o-phenanthroline by trypan blue staining based MTT assay; format: functional, cell-based
[11] = system: Jurkat; experiment: Cytotoxicity against human Jurkat cells at 6 uM incubated for 1 hr in presence of rotenone by trypan blue staining based MTT assay; format: functional, cell-based
[12] = system: Jurkat; experiment: Induction of DNA damage in human Jurkat cells assessed as accumulation of single strand breaks at 2 to 8 uM by measuring nuclear diffusion factor by fast halo based fluorescence microscopic analysis; format: functional, cell-based; settings: dose 2-8 µM
[13] = system: Jurkat; experiment: Induction of DNA damage in human Jurkat cells assessed as accumulation of single strand breaks at 2 to 6 uM under 4 degreeC incubated for 1 hr by measuring nuclear diffusion factor by fast halo based fluorescence microscopic analysis; format: functional, cell-based; settings: dose 2-6 µM
[14] = system: Jurkat; experiment: Induction of apoptosis in human Jurkat cells assessed as appearance of micronuclei pretreated with compound for 1 hr and measured after 5 hrs by uranyl acetate and lead citrate staining based transmission electron microscopic analysis; format: functional, cell-based; settings: time 6.0 hrs
[15] = system: Jurkat; experiment: Induction of DNA damage in human Jurkat cells assessed as fold increase in p53 expression at 4 uM by flow cytometric analysis; format: functional
[16] = system: TK6; experiment: Induction of DNA damage in human TK6 cells assessed as accumulation of single strand breaks at 2 to 8 uM by measuring nuclear diffusion factor by fast halo based fluorescence microscopic analysis; format: functional, cell-based; settings: dose 2-8 µM
[17] = system: RPMI-1788; experiment: Cytotoxicity against human RPMI-1788 cells assessed as reduction in cell viability at 0 to 8 uM incubated for 24 hrs by trypan blue staining based MTT assay; format: functional; settings: dose 0-8 µM
[18] = system: MOLM-13; experiment: Cytotoxicity against human MOLM-13 cells assessed as reduction in cell viability at 0 to 8 uM incubated for 24 hrs by trypan blue staining based MTT assay; format: functional; settings: dose 0-8 µM
[19] = system: TK6; experiment: Induction of DNA damage in human TK6 cells assessed as micronuclei formation at >4 uM incubated for 4 hrs by May-Grunwald/Giemsa staining based microscopic analysis; format: functional, cell-based
[20] = system: Jurkat; experiment: Induction of apoptosis in human Jurkat cells assessed as appearance of secondary necrosis pretreated with compound for 1 hr and measured after 5 hrs by uranyl acetate and lead citrate staining based transmission electron microscopic analysis; format: functional, cell-based; settings: time 6.0 hrs
[21] = system: U-937; experiment: Cytotoxicity against human U-937 cells assessed as reduction in cell viability at 0 to 8 uM incubated for 24 hrs by trypan blue staining based MTT assay; format: functional; settings: dose 0-8 µM
[22] = system: Jurkat; experiment: Cytotoxicity against human Jurkat cells assessed as cell growth inhibition under 37 degreeC incubated for 72 hrs by trypan blue staining based MTT assay; format: functional
[23] = system: Jurkat; experiment: Induction of DNA damage in human Jurkat cells measured at 1 hr; format: functional, cell-based; settings: dose 6.0 µM
[24] = system: Jurkat; experiment: Induction of DNA damage in human Jurkat cells at 6 uM assessed as nuclear diffusion factor incubated for 1 hr in presence of rotenone by fast halo based fluorescence microscopic analysis; format: functional, cell-based
[25] = system: MV4-11; experiment: Cytotoxicity against human MV4-11 cells assessed as reduction in cell viability at 0 to 8 uM incubated for 24 hrs by trypan blue staining based MTT assay; format: functional; settings: dose 0-8 µM
[26] = system: RPMI-1788; experiment: Cytotoxicity against human RPMI-1788 cells assessed as reduction in cell viability incubated for 24 hrs by trypan blue staining based MTT assay; format: functional; settings: dose 0-8 µM
[27] = system: Jurkat; experiment: Induction of DNA damage in human Jurkat cells assessed as fold increase in H2AX phosphorylation expression at 4 to 8 uM incubated for 30 mins by flow cytometric analysis; format: functional; settings: dose 4-8 µM, 0.5 h
[28] = system: U-937; experiment: Cytotoxicity against human U-937 cells assessed as reduction in cell viability incubated for 24 hrs by trypan blue staining based MTT assay; format: functional; settings: dose 0-8 µM
[29] = system: OCI-AML-3; experiment: Cytotoxicity against human OCI-AML-3 cells assessed as reduction in cell viability at 0 to 8 uM incubated for 24 hrs by trypan blue staining based MTT assay; format: functional; settings: dose 0-8 µM
[30] = system: Jurkat; experiment: Induction of apoptosis in human Jurkat cells assessed as cleavage of PARP1 at 4 to 6 uM by flow cytometric analysis; format: functional, cell-based; settings: dose 4-6 µM
[31] = system: MOLM-13; experiment: Cytotoxicity against human MOLM-13 cells assessed as reduction in cell viability incubated for 24 hrs by trypan blue staining based MTT assay; format: functional; settings: dose 0-8 µM
[32] = system: MV4-11; experiment: Cytotoxicity against human MV4-11 cells assessed as reduction in cell viability incubated for 24 hrs by trypan blue staining based MTT assay; format: functional; settings: dose 0-8 µM
[33] = system: Jurkat; experiment: Induction of apoptosis in human Jurkat cells assessed as increase in caspase-3 activity incubated for 2 hrs by colorimetric protease assay; format: functional, cell-based; settings: dose 2-6 µM
[34] = system: OCI-AML-3; experiment: Cytotoxicity against human OCI-AML-3 cells assessed as reduction in cell viability incubated for 24 hrs by trypan blue staining based MTT assay; format: functional; settings: dose 0-8 µM
[35] = system: Jurkat; experiment: Induction of apoptosis in human Jurkat cells assessed as appearance of cup-shaped masses pretreated with compound for 1 hr and measured after 5 hrs by uranyl acetate and lead citrate staining based transmission electron microscopic analysis; format: functional, cell-based; settings: time 6.0 hrs
[36] = system: TK6; experiment: Cytotoxicity against human TK6 cells assessed as reduction in cell viability at 0 to 6 uM incubated for 24 hrs by trypan blue staining based MTT assay; format: functional; settings: dose 0-6 µM
[37] = system: TK6; experiment: Cytotoxicity against human TK6 cells assessed as reduction in cell viability incubated for 24 hrs by trypan blue staining based MTT assay; format: functional; settings: dose 0-6 µM
[38] = system: TK6; experiment: Induction of DNA damage in human TK6 cells assessed as micronuclei formation at 4 uM by measuring 1000 binucleated cells incubated for 4 hrs by May-Grunwald/Giemsa staining based microscopic analysis; format: functional
[39] = system: TK6; experiment: Induction of DNA damage in human TK6 cells assessed as micronuclei formation incubated for 4 hrs by May-Grunwald/Giemsa staining based microscopic analysis; format: functional, cell-based; settings: dose 1-4 µM
[40] = system: Jurkat; experiment: Induction of DNA damage in human Jurkat cells assessed as single strand breaks at <32 uM by measuring nuclear diffusion factor by fast halo based fluorescence microscopic analysis; format: functional, cell-based
[41] = system: Jurkat; experiment: Cytotoxicity against human Jurkat cells assessed as inhibition of cell viability < 32 uM incubated for 72 hrs by trypan blue staining based MTT assay; format: functional
[42] = system: TK6; experiment: Induction of DNA damage in human TK6 cells assessed as micronuclei formation at 2 uM incubated for 4 hrs by May-Grunwald/Giemsa staining based microscopic analysis; format: functional, cell-based
[43] = system: Jurkat; experiment: Induction of DNA damage in human Jurkat cells at 4 uM assessed as nuclear diffusion factor incubated for 1 hr in presence of rotenone by fast halo based fluorescence microscopic analysis; format: functional, cell-based
[44] = system: Jurkat; experiment: Cytotoxicity against human Jurkat cells at 4 uM incubated for 1 hr in presence of rotenone by trypan blue staining based MTT assay; format: functional, cell-based
[45] = system: Jurkat; experiment: Induction of DNA damage in human Jurkat cells at 4 uM assessed as nuclear diffusion factor incubated for 1 hr in presence of iron-chelator o-phenanthroline by fast halo based fluorescence microscopic analysis; format: functional, cell-based
[46] = system: Jurkat; experiment: Cytotoxicity against human Jurkat cells at 4 uM in presence of iron-chelator o-phenanthroline by trypan blue staining based MTT assay; format: functional, cell-based

C[S+]([O-])CCCCN=C=S (centres undefined) [SULFORAPHANE]
29.7 µM: IC50 [2]
66.2%: viability at 30 µM [1]

Cc1ccccc1-c1c2ccc(=O)cc-2oc2cc(OCCCCCCN=C=S)ccc12
3.99 µM: IC50 [7]
active: Activity [4] | Activity [5] | Activity [6] Dose-dependent-effect | Activity [8] Dose-dependent-effect | Activity [9] | Activity [10] | Activity [11] | Activity [12] | Activity [13] | Activity [14] | Activity [16] | Activity [17] | Activity [18] | Activity [19] | Activity [20] | Activity [21] | Activity [23] Dose-dependent-effect | Activity [24] | Activity [25] | Activity [26] Dose-dependent-effect | Activity [28] Dose-dependent-effect | Activity [29] | Activity [2] Dose-dependent-effect | Activity [30] | Activity [31] Dose-dependent-effect | Activity [32] Dose-dependent-effect | Activity [33] Dose-dependent-effect | Activity [34] Dose-dependent-effect | Activity [35] | Activity [36] | Activity [37] Dose-dependent-effect | Activity [39] Dose-dependent-effect
5.96 µM: IC50 [22] | IC50 [2]
13.07: Activity [38]
45.5: fold change (FC) [15]
59.2%: Activity [3]
2: fold change (FC) [27]

Cc1ccccc1-c1c2ccc(=O)cc-2oc2cc(OCCCCCCN)ccc12
inactive: Activity [40] | Activity [41]

Cc1ccccc1-c1c2ccc(=O)cc-2oc2cc(OCCOCCN=C=S)ccc12
2: fold change (FC) [27]
2.54 µM: IC50 [7]
active: Activity [5] | Activity [6] Dose-dependent-effect | Activity [8] Dose-dependent-effect | Activity [42] | Activity [12] | Activity [13] | Activity [43] | Activity [16] | Activity [17] | Activity [44] | Activity [18] | Activity [19] | Activity [21] | Activity [23] Dose-dependent-effect | Activity [25] | Activity [26] Dose-dependent-effect | Activity [28] Dose-dependent-effect | Activity [29] | Activity [2] Dose-dependent-effect | Activity [30] | Activity [45] | Activity [31] Dose-dependent-effect | Activity [32] Dose-dependent-effect | Activity [33] Dose-dependent-effect | Activity [34] Dose-dependent-effect | Activity [36] | Activity [37] Dose-dependent-effect | Activity [46] | Activity [39] Dose-dependent-effect
19.59: Activity [38]
48.7%: Activity [3]
3.65 µM: IC50 [22] | IC50 [2]
70.4: fold change (FC) [15]
